According to patent US4868117A, “BBM-1675, a new antitumor antibiotic complex” (Bristol-Myers Company, priority 1985, dated 1989):
Values joined by “and” are separate entries in the source; they are usually repeats but may differ in a detail not shown here. Identical values can stand only once. Like-named read-outs stand apart in the source and are kept apart here.

Legend:
P-388 leukemia [1] = assay: Intravenously implanted P-388 leukemia, i.v. treatment; conditions: days 1, 4 and 7, lines in dose order as in E66 (Adriamycin starts with 30)
Description: (§1) Lymphocytic leukemia P-388, lymphoid leukemia L-1210, melanotic melanoma B16 and Lewis lung carcinoma were implanted intraperitoneally into male BDF1 mice at an inoculum size of 10^6, 10^5, 5×10^5 and 10^6 cells per mouse, respectively. Graded doses of test compounds were administered to the mice intraperitoneally 24 hours after the tumor inoculation.
(§2) Death or survival of the treated and non-treated mice was recorded daily, and the median survival time (MST) was calculated for each of the test (T) and control (C) groups. […] Second experiments were carried out by intravenous administration of BBM-1675 components against P-388 and L-1210 leukemias, which were inoculated intravenously at 5×10^5 and 10^4 cells per mouse, respectively.

L-1210 leukemia [2] = assay: Intravenously implanted L-1210 leukemia, i.v. treatment; conditions: days 1, 4 and 7, lines in dose order as in E71 (Adriamycin starts with 16)
Description: as §1, §2

P-388 leukemia [3] = conditions: for Therapeutic index, LD50/MED: MED = minimum effective dose
Description: as §1, §2

L-1210 leukemia [4] = conditions: i.p., qd 1→9
Description: as §1
(§3) Death or survival of the treated and non-treated mice was recorded daily, and the median survival time (MST) was calculated for each of the test (T) and control (C) groups.

male ddY mice = assay: Toxicity (LD50) in male ddY mice; conditions: multiple dose (qd 1→9), i.p.
[5] = i.p., qd 1→9, lines in dose order as in E48
[6] = i.p., qd 1→11, lines in dose order as in E53

Description for B16 melanoma: as §1, §3
Description for Lewis lung carcinoma: as §1, §3

COc1cccc2c1C(=O)c1c(O)c3c(c(O)c1C2=O)C[C@@](O)(C(=O)CO)C[C@@H]3O[C@H]1C[C@H](N)[C@H](O)[C@H](C)O1 [Adriamycin, adriamycin]
Survivors on day 5 (P-388 leukemia [1]): 0/6 and 6/6 | Survivors on day 45 (P-388 leukemia [1]): 0/6 | Survivors on day 5 (L-1210 leukemia [2]): 2/6 and 6/6 | Survivors on day 45 (L-1210 leukemia [2]): 0/6

CO[C@@H]1[C@H](O)C[C@@H](O[C@@H]2C[C@H](Oc3cc4cc5c(c(O)c4c(O)c3C)C(=O)[C@@H](O[C@H]3C[C@@H](O[C@H]4C[C@@H](O[C@H]6C[C@](C)(O)[C@@H](OC(C)=O)[C@H](C)O6)[C@H](O)[C@@H](C)O4)[C@H](O)[C@@H](C)O3)[C@H]([C@H](OC)C(=O)[C@@H](O)[C@@H](C)O)C5)O[C@H](C)[C@@H]2OC(C)=O)O[C@@H]1C [Chromomycin A3, chromomycin A3]
Therapeutic index, LD50/MED (P-388 leukemia [3]; P-388, qd 1→9): 8 | Therapeutic index, LD50/MED (P-388 leukemia [3]; P-388, single): 8 | Survivors on day 45 (P-388 leukemia [3]; mouse, in vivo, ip): 0/5 and 1/5 | MST (L-1210 leukemia [4]; lines in dose order as in E43): 8.5 days and 11.0 days and 10.0 days | Survivors on day 5 (L-1210 leukemia [4]; lines in dose order as in E43): 6/6 | Survivors on day 45 (L-1210 leukemia [4]; lines in dose order as in E43): 0/6 | T/C (L-1210 leukemia [4]; ≥[…] significant, mg/kg/day in line order: A1 0.003,0.001,0.0003,0.0001, A2 0.03,0.01,0.003,0.001,0.0003, chromomycin A3 0.3,0.1,0.03,0.01,0.003): 89% | Therapeutic index, LD50/MED (B16 melanoma; B16, MED = minimum effective dose): 23 | MST (B16 melanoma; [5]): 23.0 days and 21.0 days | Survivors on day 5 (B16 melanoma; [5]): 6/6 | Survivors on day 45 (B16 melanoma; [5]): 0/6 | MST (B16 melanoma; mouse, in vivo, ip): 18.0 | Therapeutic index, LD50/MED (Lewis lung carcinoma; LL, MED = minimum effective dose): 23 | Survivors on day 5 (Lewis lung carcinoma; [6]): 6/6 and 5/5 | Survivors on day 45 (Lewis lung carcinoma; [6]): 1/6 and 0/6 | MST (Lewis lung carcinoma; mouse, in vivo, ip): 17.0 | Survivors on day 45 (Lewis lung carcinoma; mouse, in vivo, ip): 0/5 | LD50 (male ddY mice): 0.23 mg/kg/day
